# Laboratory results reported in patent publication US20250197407A1 (Jazz Pharmaceuticals Ireland Limited, priority 2022, published 2025).
# Target: SOS1/KRAS WT (Homo sapiens (Human), UniProt Q07889)
# Assay: SOS1/KRAS WT HTRF binding assay (FRET-based protein-protein interaction)
# Details: inhibition of His6-SOS1 (aa564-1049, 40 nM) binding to GST-KRAS-WT (aa1-188, 40 nM); at least two independent replicates; read-out: SOS1/KRAS WT HTRF Binding assay pIC50 (converted)
# Excerpt: The capacity of compounds to inhibit SOS1 binding to KRAS-WT (wild-type) was quantified using a FRET-based protein-protein interaction assay. The assay is based on the transfer of energy between two fluorophores, a donor and an acceptor, when in close proximity. In this instance, the donor is a Europium-conjugated α-GST antibody that binds to GST-tagged KRAS-WT, and the acceptor is an XL665-conjugated α-His 6 antibody that binds to His 6-tagged SOS1. Binding of SOS1 to KRAS-WT results in an increased fluorescent signal at emission wavelength of 665 nm which can be detected on the EnVision plate reader. Compounds that inhibit binding will reduce the 665 nm signal emitted. Recombinant KRAS-WT protein (40 nM; Human KRAS, aa1-188 recombinant protein with N-terminal GST-tag) and SOS1 protein (40 nM; Human SOS1 exchange domain, aa564-1049 with N-terminal 6His-tag) were mixed together in assay buffer (5 mM HEPES pH7.3, 150 mM NaCl, 10 mM EDTA, 5 mM MgCl2, 0.05% BSA, 0.0025% NP-40, 1 mM DTT and 100 mM KF) and incubated at room temperature with a dose response of compound in a 384-well low volume white plate and a final volume of 5 ul. After a 60 minute incubation, 5 ul of 4 nM anti-GST-Eu(K) (Cisbio, France) combined with 20 nM anti-6His-XL665 (Cisbio, France), diluted in assay buffer, was added to the plate. Following a further 4 hr incubation at room temperature, time-resolved fluorescence was measured on the EnVision plate reader. DMSO (0.05%) and 10 μM reference compound were used to generate the Max and Min assay signals, respectively. Data was analysed using a four-parameter logistic model to calculate IC50 values, with at least two independent replicates performed for each compound.
# Data was analyzed using a four-parameter logistic model to calculate IC50 values, with at least two independent replicates performed for each compound.
# Chain of SOS1/KRAS WT (Q07889 564-1049): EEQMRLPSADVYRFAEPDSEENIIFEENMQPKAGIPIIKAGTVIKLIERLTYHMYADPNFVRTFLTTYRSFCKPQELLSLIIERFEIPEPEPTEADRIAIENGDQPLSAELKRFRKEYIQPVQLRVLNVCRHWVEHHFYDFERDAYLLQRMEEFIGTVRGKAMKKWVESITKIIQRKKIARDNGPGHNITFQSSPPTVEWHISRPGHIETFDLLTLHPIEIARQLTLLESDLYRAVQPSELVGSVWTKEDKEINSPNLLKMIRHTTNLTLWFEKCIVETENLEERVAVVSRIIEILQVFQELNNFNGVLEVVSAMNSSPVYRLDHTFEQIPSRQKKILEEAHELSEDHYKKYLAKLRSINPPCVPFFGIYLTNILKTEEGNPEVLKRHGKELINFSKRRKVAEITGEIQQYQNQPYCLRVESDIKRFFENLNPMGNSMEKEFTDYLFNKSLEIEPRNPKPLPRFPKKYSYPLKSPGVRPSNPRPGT
row,IC50 [nM],SMILES
1,20.9,"Cc1nnc(N[C@H](C)c2cccc(C(F)(F)F)c2)c2cc3c(cc12)n(C)c(=O)n3C [Compound 3, 1,3,8-trimethyl-5-[[(1R)-1-[3-(trifluoromethyl)phenyl]ethyl]amino] imidazo[4,5-g]phthalazin-2-one]"
2,17,"Cc1nnc(N[C@H](C)c2cc(N)cc(C(F)(F)F)c2)c2cc3c(cc12)n(C)c(=O)n3C [Compound 4, 5-[[(1R)-1-[3-amino-5-(trifluoromethyl)phenyl]ethyl]amino]-1,3,8-trimethyl-imidazo[4,5-g]phthalazin-2-one]"
3,39.8,"Cc1nnc(N[C@H](C)c2cccc(C(F)F)c2)c2cc3c(cc12)n(C)c(=O)n3C [Compound 5, 5-[[(1R)-1-[3-(difluoromethyl)phenyl]ethyl]amino]-1,3,8-trimethyl-imidazo[4,5-g]phthalazin-2-one]"
4,18.6,"Cc1nnc(N[C@H](C)c2cccc(C(F)(F)CO)c2)c2cc3c(cc12)n(C)c(=O)n3C [Compound 6, 5-[[(1R)-1-[3-(1,1-difluoro-2-hydroxy-ethyl)phenyl]ethyl]amino]-1,3,8-trimethyl-imidazo[4,5-g]phthalazin-2-one]"
5,17.4,"Cc1nnc(N[C@H](C)c2cccc(C(F)(F)CO)c2F)c2cc3c(cc12)n(C)c(=O)n3C [Compound 7, 5-[[(1R)-1-[3-(1,1-difluoro-2-hydroxy-ethyl)-2-fluoro-phenyl]ethyl]amino]-1,3,8-trimethyl-imidazo[4,5-g]phthalazin-2-one]"
6,12.6,"COCCn1c(=O)n(C)c2cc3c(C)nnc(N[C@H](C)c4cccc(C(F)(F)F)c4)c3cc21 [Compound 8, 3-(2-methoxyethyl)-1,8-dimethyl-5-[[(1R)-1-[3-(trifluoromethyl)phenyl]ethyl]amino]imidazo[4,5-g]phthalazin-2-one]"
7,12,"CCn1c(=O)n(C)c2cc3c(C)nnc(N[C@H](C)c4cccc(C(F)(F)F)c4)c3cc21 [Compound 9, 3-ethyl-1,8-dimethyl-5-[[(1R)-1-[3-(trifluoromethyl)phenyl]ethyl]amino] imidazo[4,5-g]phthalazin-2-one]"
8,9.12,"Cc1c([C@@H](C)Nc2nnc(C)c3cc4c(cc23)n(C)c(=O)n4C)cccc1C(F)(F)CO [Compound 10, 5-[[(1R)-1-[3-(1,1-difluoro-2-hydroxy-ethyl)-2-methyl-phenyl]ethyl]amino]-1,3,8-trimethyl-imidazo[4,5-g]phthalazin-2-one]"
9,12,"Cc1nnc(N[C@H](C)c2cccc(C(F)(F)F)c2)c2cc3c(cc12)n(C)c(=O)n3CC(F)(F)F [Compound 11, 1,8-dimethyl-5-[[(1R)-1-[3-(trifluoromethyl)phenyl]ethyl]amino]-3-(2,2,2-trifluoroethyl)imidazo[4,5-g]phthalazin-2-one]"
10,8.13,"Cc1nnc(N[C@H](C)c2cccc(C(F)(F)F)c2)c2cc3c(cc12)n(C)c(=O)n3C(C)C [Compound 12, 3-isopropyl-1,8-dimethyl-5-[[(1R)-1-[3-(trifluoromethyl)phenyl]ethyl]amino]imidazo[4,5-g]phthalazin-2-one]"
11,11.5,"Cc1nnc(N[C@H](C)c2cccc(C(F)(F)F)c2)c2cc3c(cc12)n(C)c(=O)n3C1CC1 [Compound 13, 3-cyclopropyl-1,8-dimethyl-5-[[(1R)-1-[3-(trifluoromethyl)phenyl]ethyl]amino]imidazo[4,5-g]phthalazin-2-one]"
12,7.59,"Cc1nnc(N[C@H](C)c2cccc(C(F)(F)CO)c2)c2cc3c(cc12)n(C)c(=O)n3C(C)C [Compound 14, 3-isopropyl-1,8-dimethyl-5-[[(1R)-1-[3-(1,1-difluoro-2-hydroxy-ethyl)phenyl]ethyl]amino]imidazo [4,5-g]phthalazin-2-one]"
13,8.32,"Cc1nnc(N[C@H](C)c2cccc(C(F)(F)CO)c2F)c2cc3c(cc12)n(C)c(=O)n3C(C)C [Compound 15, 3-isopropyl-1,8-dimethyl-5-[[(1R)-1-[3-(1,1-difluoro-2-hydroxy-ethyl)-2-fluoro-phenyl]ethyl]amino]imidazo[4,5-g]phthalazin-2-one]"
14,11.2,"Cc1nnc(N[C@H](C)c2cccc(C(F)(F)C(C)(C)O)c2F)c2cc3c(cc12)n(C)c(=O)n3C [Compound 16, 1,3,8-trimethyl-5-[[(1R)-1-[3-(1,1-difluoro-2-hydroxy-2-methyl-propyl)-2-fluoro-phenyl]ethyl]amino]imidazo[4,5-g]phthalazin-2-one]"
15,22.9,"COCCn1c(=O)n(C)c2cc3c(N[C@H](C)c4cccc(C(F)(F)F)c4)nnc(C)c3cc21 [Compound 17, 1-(2-methoxyethyl)-3,8-dimethyl-5-[[(1R)-1-[3-(trifluoromethyl)phenyl]ethyl]amino] imidazo[4,5-g]phthalazin-2-one]"
16,23.4,"Cc1nnc(N[C@H](C)c2cccc(C(F)(F)F)c2)c2cc3c(cc12)n(C)c(=O)n3CC1CC1 [Compound 18, 3-(cyclopropylmethyl)-1,8-dimethyl-5-[[(1R)-1-[3-(trifluoromethyl)phenyl]ethyl]amino] imidazo[4,5-g]phthalazin-2-one]"
17,9.12,"CCn1c(=O)n(C)c2cc3c(C)nnc(N[C@H](C)c4cccc(C(F)(F)CO)c4F)c3cc21 [Compound 19, 3-ethyl-1,8-dimethyl-5-[[(1R)-1-[3-(1,1-difluoro-2-hydroxy-ethyl)-2-fluoro-phenyl]ethyl]amino]imidazo[4,5-g]phthalazin-2-one]"
18,10,"CCn1c(=O)n(C)c2cc3c(C)nnc(N[C@H](C)c4cccc(C(F)F)c4F)c3cc21 [Compound 20, 3-ethyl-1,8-dimethyl-5-[[(1R)-1-[3-(difluoromethyl)-2-fluoro-phenyl]ethyl]amino]imidazo[4,5-g]phthalazin-2-one]"
19,9.77,"Cc1nnc(N[C@H](C)c2cccc(C(F)(F)CO)c2F)c2cc3c(cc12)n(C)c(=O)n3C1CCC1 [Compound 21, 3-cyclobutyl-1,8-dimethyl-5-[[(1R)-1-[3-(1,1-difluoro-2-hydroxy-ethyl)-2-fluoro-phenyl]ethyl]amino]imidazo[4,5-g]phthalazin-2-one]"
20,11.5,"Cc1nnc(N[C@H](C)c2cccc(C(F)(F)F)c2)c2cc3c(cc12)n(C)c(=O)n3C1CCC1 [Compound 22, 3-cyclobutyl-1,8-dimethyl-5-[[(1R)-1-[3-(trifluoromethyl)phenyl]ethyl]amino] imidazo[4,5-g]phthalazin-2-one]"
21,44.7,"Cc1nnc(N[C@H](C)c2cccc(C(F)(F)F)c2)c2cc3c(cc12)OCC(=O)N3C [Compound 23, 4,9-dimethyl-6-[[(1R)-1-[3-(trifluoromethyl)phenyl]ethyl]amino]pyridazino[4,5-g][1,4]benzoxazin-3-one]"

row,SMILES,IC50 [nM]
1,"Cc1nnc(NC(C)c2cccc(C(F)(F)F)c2)c2cc3c(cc12)n(C)c(=O)n3C1CCCC1 (centres unmarked) [Compound 1, 3-cyclopentyl-1,8-dimethyl-5-[1-[3-(trifluoromethyl)phenyl]-ethylamino]^− imidazo[4,5-g]phthalazin-2-one]",37.2
2,"Cc1nnc(N[C@H](C)c2cccc(C(F)(F)F)c2)c2cc3c(cc12)n(C)c(=O)n3C1CCCC1 [Compound 2, 3-cyclopentyl-1,8-dimethyl-5-[[(1R)-1-[3-(trifluoromethyl)phenyl]ethyl]amino] imidazo[4,5-g]phthalazin-2-one]",13.2
